Results taken from PubChem BioAssay (NCI).
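How tested: cells in 96-well plates exposed to compound for 48 hours at five concentrations. Abbreviation: GI50, concentration required for 50% inhibition of growth. TGI: total growth inhibition.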

What was measured:
Experiment in all cases: growth of human tumour cells (NCI), 48 h
[1] = system: SW-620 colon
[2] = system: MDA-MB-231 breast
[3] = system: U251 CNS
[4] = system: HS 578T breast
[5] = system: TK-10 renal
[6] = system: CAKI-1 renal
[7] = system: NCI-H460 lung
[8] = system: NCI-H23 lung
[9] = system: M14 melanoma
[10] = system: OVCAR-8 ovarian
[11] = system: OVCAR-3 ovarian
[12] = system: SNB-75 CNS
[13] = system: 786-0 renal
[14] = system: MCF7 breast
[15] = system: HCT-15 colon
[16] = system: SK-OV-3 ovarian
[17] = system: EKVX NSCLC
[18] = system: RXF 393 renal
[19] = system: SF-268 CNS
[20] = system: HCC-2998 colon
[21] = system: NCI-H226 lung
[22] = system: BT-549 breast
[23] = system: SN12C renal
[24] = system: MOLT-4 leukemia
[25] = system: A498 renal
[26] = system: SK-MEL-2 melanoma
[27] = system: SK-MEL-5 melanoma
[28] = system: HOP-62 NSCLC
[29] = system: UACC-62 melanoma
[30] = system: DU-145 prostate
[31] = system: IGROV1 ovarian
[32] = system: PC-3 prostate
[33] = system: NCI/ADR-RES ovarian
[34] = system: HL-60(TB) leukemia
[35] = system: MALME-3M melanoma
[36] = system: KM12 colon
[37] = system: HT29 colon
[38] = system: T-47D breast
[39] = system: RPMI-8226 leukemia
[40] = system: UO-31 renal
[41] = system: HCT-116 colon
[42] = system: UACC-257 melanoma
[43] = system: SF-295 CNS
[44] = system: MDA-MB-435
[45] = system: HOP-92 NSCLC
[46] = system: A549 NSCLC
[47] = system: NCI-H522 lung
[48] = system: OVCAR-4 ovarian
[49] = system: SF-539 CNS
[50] = system: SNB-19 CNS
[51] = system: K-562 leukemia
[52] = system: LOX IMVI melanoma
[53] = system: SR leukemia
[54] = system: COLO 205 colon
[55] = system: OVCAR-5 ovarian
[56] = system: CCRF-CEM leukemia
[57] = system: ACHN renal
[58] = system: SK-MEL-28 melanoma

Structure (SMILES): COc1cc(/C=N/Nc2ncnc3[nH]ncc23)ccc1O
- GI50 [1]: > 25 µM
- TGI [1]: > 25 µM
- GI50 [2]: > 20.1 µM
- TGI [2]: > 25 µM
- GI50 [3]: 24.7 µM
- TGI [3]: > 25 µM
- GI50 [4]: 6.53 µM
- TGI [4]: > 20.5 µM
- GI50 [5]: 9.15 µM
- TGI [5]: > 22.1 µM
- GI50 [6]: 6.93 µM
- TGI [6]: > 25 µM
- GI50 [7]: 24.7 µM
- TGI [7]: > 25 µM
- GI50 [8]: > 21.7 µM
- TGI [8]: > 25 µM
- GI50 [9]: 15.7 µM
- TGI [9]: > 25 µM
- GI50 [10]: > 25 µM
- TGI [10]: > 25 µM
- GI50 [11]: > 22.7 µM
- TGI [11]: > 25 µM
- GI50 [12]: 4.83 µM
- TGI [12]: > 16.6 µM
- GI50 [13]: 11.8 µM
- TGI [13]: > 25 µM
- GI50 [14]: 11.4 µM
- TGI [14]: > 25 µM
- GI50 [15]: 24.6 µM
- TGI [15]: > 25 µM
- GI50 [16]: 17.9 µM
- TGI [16]: > 25 µM
- GI50 [17]: > 23.2 µM
- TGI [17]: > 25 µM
- GI50 [18]: 5.24 µM
- TGI [18]: > 18.9 µM
- GI50 [19]: 21.4 µM
- TGI [19]: > 25 µM
- GI50 [20]: > 25 µM
- TGI [20]: > 25 µM
- GI50 [21]: > 25 µM
- TGI [21]: > 25 µM
- GI50 [22]: > 23.6 µM
- TGI [22]: > 25 µM
- GI50 [23]: 13.6 µM
- TGI [23]: > 25 µM
- GI50 [24]: 12.4 µM
- TGI [24]: > 25 µM
- GI50 [25]: 8.93 µM
- TGI [25]: > 25 µM
- GI50 [26]: 6.53 µM
- TGI [26]: 17.1 µM
- GI50 [27]: 17.5 µM
- TGI [27]: > 25 µM
- GI50 [28]: 19.8 µM
- TGI [28]: > 25 µM
- GI50 [29]: 11.3 µM
- TGI [29]: > 25 µM
- GI50 [30]: > 23.9 µM
- TGI [30]: > 25 µM
- GI50 [31]: 8.97 µM
- TGI [31]: > 25 µM
- GI50 [32]: > 20.6 µM
- TGI [32]: > 25 µM
- GI50 [33]: > 25 µM
- TGI [33]: > 25 µM
- GI50 [34]: > 23.6 µM
- TGI [34]: > 25 µM
- GI50 [35]: 11.7 µM
- TGI [35]: > 25 µM
- GI50 [36]: 12.6 µM
- TGI [36]: > 25 µM
- GI50 [37]: 12.6 µM
- TGI [37]: > 25 µM
- GI50 [38]: 6.82 µM
- TGI [38]: > 25 µM
- GI50 [39]: > 25 µM
- TGI [39]: > 25 µM
- GI50 [40]: 5.96 µM
- TGI [40]: > 25 µM
- GI50 [41]: 19.6 µM
- TGI [41]: > 25 µM
- GI50 [42]: > 21.8 µM
- TGI [42]: > 25 µM
- GI50 [43]: 18.6 µM
- TGI [43]: > 25 µM
- GI50 [44]: 7.95 µM
- TGI [44]: > 25 µM
- GI50 [45]: 6.77 µM
- TGI [45]: > 22.1 µM
- GI50 [46]: > 25 µM
- TGI [46]: > 25 µM
- GI50 [47]: 11 µM
- TGI [47]: > 25 µM
- GI50 [48]: > 25 µM
- TGI [48]: > 25 µM
- GI50 [49]: 7.78 µM
- TGI [49]: > 21.8 µM
- GI50 [50]: > 25 µM
- TGI [50]: > 25 µM
- GI50 [51]: 9.94 µM
- TGI [51]: > 25 µM
- GI50 [52]: 9.26 µM
- TGI [52]: > 25 µM
- GI50 [53]: 13.1 µM
- TGI [53]: > 25 µM
- GI50 [54]: > 25 µM
- TGI [54]: > 25 µM
- GI50 [55]: > 19.4 µM
- TGI [55]: > 25 µM
- GI50 [56]: 14.8 µM
- TGI [56]: > 25 µM
- GI50 [57]: 8.01 µM
- TGI [57]: > 25 µM
- GI50 [58]: > 20.1 µM
- TGI [58]: > 25 µM
